Measurements taken from ChEMBL document CHEMBL1201862, “PubChem BioAssay data set” (2004).
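In this assay, cells in 96-well plates receive the compound at five concentrations for 48 hours. Endpoints are linearly interpolated between the surrounding concentrations. Abbreviation: GI50, concentration required for 50% inhibition of growth.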 Calls of active or inactive are those of the source. Rule as the data show it: active = GI50 up to about 1.1 µM and inactive = higher.

Key:
Assay in all cases: DTP human tumour cell line panel, 48 h
OVCAR-8 = tested on: OVCAR-8
MDA-MB-435 = tested on: MDA-MB-435
HT-29 = tested on: HT-29
SK-MEL-5 = tested on: SK-MEL-5
A498 = tested on: A498
786-0 = tested on: 786-0
NCI/ADR-RES = tested on: NCI/ADR-RES
LOX IMVI = tested on: LOX IMVI
IGROV-1 = tested on: IGROV-1
RXF 393 = tested on: RXF 393
Hs-578T = tested on: Hs-578T
MDA-MB-231 = tested on: MDA-MB-231
NCI-H522 = tested on: NCI-H522
T47D = tested on: T47D
SK-MEL-2 = tested on: SK-MEL-2
COLO 205 = tested on: COLO 205
HCT-15 = tested on: HCT-15
NCI-H226 = tested on: NCI-H226
SN12C = tested on: SN12C
OVCAR-5 = tested on: OVCAR-5

Row | SMILES | GI50 (OVCAR-8) | GI50 (MDA-MB-435) | GI50 (HT-29) | GI50 (SK-MEL-5) | GI50 (A498) | GI50 (786-0) | GI50 (NCI/ADR-RES) | GI50 (LOX IMVI) | GI50 (IGROV-1) | GI50 (RXF 393) | GI50 (Hs-578T) | GI50 (MDA-MB-231) | GI50 (NCI-H522) | GI50 (T47D) | GI50 (SK-MEL-2) | GI50 (COLO 205) | GI50 (HCT-15) | GI50 (NCI-H226) | GI50 (SN12C) | GI50 (OVCAR-5)
1 | N#Cc1c(N)n(C2OC(CO)C(O)C2O)c2ncnc(N)c12 (configuration not stated) | 0.014 µM (active) | 0.0212 µM (active) | 0.0288 µM (active) | 0.0653 µM (active) | 0.175 µM (active) | 0.0671 µM (active) | 0.0243 µM (active) | 0.0165 µM (active) | 0.22 µM (active) | 0.153 µM (active) | 0.144 µM (active) | 0.0364 µM (active) | 0.135 µM (active) | 0.0403 µM (active) | 0.0521 µM (active) | 0.0329 µM (active) | 0.0277 µM | 0.0684 µM (active) | 0.0186 µM (active) | 0.0541 µM (active)
2 | CCN(CCCl)c1cc(CN(C)C)cc(NC(=O)C23CCC(C(=O)Nc4cc(CN(C)C)cc(N(CC)CCCl)c4)(CC2)CC3)c1 | 1.11 µM (active) | 1.39 µM (inactive) | 0.229 µM (active) | 1.75 µM (inactive) | 6.44 µM (inactive) | 0.073 µM (active) | 29.9 µM (inactive) | 0.152 µM (active) | 1.44 µM (inactive) | 1.37 µM (inactive) | 0.46 µM (active) | 12.8 µM (inactive) | 0.202 µM (active) | 3.03 µM (inactive) | 2.39 µM (inactive) | 1.49 µM (inactive) | 13.4 µM | 1.4 µM (inactive) | 0.245 µM (active) | 1.5 µM (inactive)
3 | COc1ccc(OC)c(/N=C/c2cc(OC)c(OC)c(OC)c2)c1 | > 100 µM (inactive) | 28 µM (inactive) | > 100 µM (inactive) | > 100 µM (inactive) | > 100 µM (inactive) | > 95.7 µM (inactive) | > 100 µM (inactive) | > 100 µM (inactive) | > 82.8 µM (inactive) | > 100 µM (inactive) | > 100 µM (inactive) | > 100 µM (inactive) | 22.9 µM (inactive) | > 100 µM (inactive) | > 100 µM (inactive) | > 100 µM (inactive) | > 92.7 µM | > 50.2 µM (inactive) | > 100 µM (inactive) | > 100 µM (inactive)
4 | COC(=O)CCC(C)[C@H]1CCC2C3C(C[C@H](OC(C)=O)[C@@]21C)[C@@]1(C)CCC2(C[C@H]1C[C@H]3OC(C)=O)OOC1(CCCCC1)OO2 (some centres not stated) | 17.6 µM (inactive) | 36.2 µM (inactive) | 41.9 µM (inactive) | 19.4 µM (inactive) | > 100 µM (inactive) | 15.1 µM (inactive) | 49.2 µM (inactive) | 11.5 µM (inactive) | 5.2 µM (inactive) | 38.7 µM (inactive) | 12 µM (inactive) | 18 µM (inactive) | 9.33 µM (inactive) | 65.9 µM (inactive) | 52.7 µM (inactive) | 24.7 µM (inactive) | 21.8 µM | 17.7 µM (inactive) | 36.6 µM (inactive) | 43.5 µM (inactive)
5 | COC(=O)CC1C2(C)C3=C(C)C(c4ccoc4)CC3OC2C2OC(=O)C3(C)C=CC(=O)C1(C)C23 (configuration not stated) | 1.02 µM (active) | 0.656 µM (active) | 0.839 µM (active) | 1.6 µM (inactive) | 1.94 µM (inactive) | 0.869 µM (active) | 2.04 µM (inactive) | 0.986 µM (active) | 0.953 µM (active) | 1.3 µM (inactive) | 3.5 µM (inactive) | 1.22 µM (inactive) | 0.575 µM (active) | 1.38 µM (inactive) | 1.64 µM (inactive) | 1.3 µM (inactive) | 0.67 µM | 2.13 µM (inactive) | 0.859 µM (active) | 2.3 µM (inactive)
6 | COC(=O)CNC(=O)/C=C/[C@H](O[Si](C)(C)C(C)(C)C)[C@H](/C=C/C(=O)NCC(=O)OC)O[Si](C)(C)C(C)(C)C | > 25 µM (inactive) | > 25 µM (inactive) | > 25 µM (inactive) | > 25 µM (inactive) | > 25 µM (inactive) | > 25 µM (inactive) | > 25 µM (inactive) | > 25 µM (inactive) | > 25 µM (inactive) | > 25 µM (inactive) | > 25 µM (inactive) | > 25 µM (inactive) | > 25 µM (inactive) | > 25 µM (inactive) | > 25 µM (inactive) | > 25 µM (inactive) | > 25 µM | > 25 µM (inactive) | > 25 µM (inactive) | > 25 µM (inactive)
7 | COc1cc(C(c2cccc3ccccc23)N2C(=O)CCC2C(=O)O)cc(OC)c1OC (configuration not stated) | > 100 µM (inactive) | > 100 µM (inactive) | > 100 µM (inactive) | > 100 µM (inactive) | > 100 µM (inactive) | > 100 µM (inactive) | > 100 µM (inactive) | – | > 100 µM (inactive) | > 100 µM (inactive) | > 100 µM (inactive) | > 100 µM (inactive) | > 100 µM (inactive) | > 100 µM (inactive) | > 100 µM (inactive) | > 100 µM (inactive) | > 100 µM | > 100 µM (inactive) | > 100 µM (inactive) | > 100 µM (inactive)
8 | C=CC(C)(C)C(=C)C(=O)N(C)c1ccccc1I | > 100 µM (inactive) | > 100 µM (inactive) | > 100 µM (inactive) | 72.8 µM (inactive) | > 100 µM (inactive) | > 100 µM (inactive) | > 100 µM (inactive) | > 100 µM (inactive) | – | > 100 µM (inactive) | 57.9 µM (inactive) | > 100 µM (inactive) | > 100 µM (inactive) | > 100 µM (inactive) | > 100 µM (inactive) | > 100 µM (inactive) | > 100 µM | 95.7 µM (inactive) | > 100 µM (inactive) | > 100 µM (inactive)
9 | CN(CCc1ccccn1)C(=S)N/N=C/c1ccccn1 | 0.0308 µM (active) | 0.678 µM (active) | < 0.0473 µM (active) | 0.11 µM (active) | 0.0194 µM (active) | 0.0495 µM (active) | < 0.0201 µM (active) | 0.07 µM (active) | 0.0184 µM (active) | 0.126 µM (active) | 20 µM (inactive) | < 0.01 µM (active) | < 0.01 µM (active) | < 0.01 µM (active) | 0.0168 µM (active) | < 0.01 µM (active) | 0.0148 µM | 0.0516 µM (active) | 0.111 µM (active) | 0.0238 µM (active)
10 | C[n+]1c2ccccc2c(N=[N+]=[N-])c2ccccc21 | 6.46 µM (inactive) | 7.14 µM (inactive) | 3.93 µM (inactive) | > 10 µM (inactive) | 6.3 µM (inactive) | 4.53 µM (inactive) | > 10 µM (inactive) | 2.94 µM (inactive) | 7.03 µM (inactive) | > 10 µM (inactive) | > 10 µM (inactive) | 8.63 µM (inactive) | 8.87 µM (inactive) | > 10 µM (inactive) | > 10 µM (inactive) | 4.29 µM (inactive) | 5.66 µM | 6.27 µM (inactive) | 7.03 µM (inactive) | > 10 µM (inactive)
11 | COc1ccc(CCCCl)c(C2=NCCc3ccccc32)c1 | 35.4 µM (inactive) | 26.2 µM (inactive) | 19.2 µM (inactive) | 9.59 µM (inactive) | > 100 µM (inactive) | 89.5 µM (inactive) | > 100 µM (inactive) | – | 24.8 µM (inactive) | 56.9 µM (inactive) | 20.6 µM (inactive) | 25.1 µM (inactive) | 6.75 µM (inactive) | 32.9 µM (inactive) | 61.7 µM (inactive) | 17.3 µM (inactive) | > 100 µM | 31.7 µM (inactive) | 9.91 µM (inactive) | > 100 µM (inactive)
12 | O=C1CSC2(CC(/C=C/c3ccccc3O)=NN2c2cccc(S(=O)(=O)O)c2)N1c1nc2ccccc2s1 (configuration not stated) | 17.9 µM (inactive) | 21.4 µM (inactive) | 45.4 µM (inactive) | 25.9 µM (inactive) | 42.9 µM (inactive) | 31.6 µM (inactive) | 26.7 µM (inactive) | 17.3 µM (inactive) | 23.3 µM (inactive) | 54.6 µM (inactive) | 47.3 µM (inactive) | 30.1 µM (inactive) | 15.7 µM (inactive) | 19.6 µM (inactive) | 34 µM (inactive) | 29.9 µM (inactive) | 20 µM | 22.2 µM (inactive) | 24.8 µM (inactive) | 26.9 µM (inactive)
13 | C/C(=N\Nc1nc2ccccc2[nH]1)c1ncccn1 | 0.043 µM (active) | 0.0968 µM (active) | 0.0236 µM (active) | 0.0574 µM (active) | 0.0851 µM (active) | 0.0238 µM (active) | 0.0608 µM (active) | 0.047 µM (active) | < 0.031 µM (active) | 0.0771 µM (active) | 12.1 µM (inactive) | 0.059 µM (active) | < 0.0164 µM (active) | 0.0215 µM (active) | 2.01 µM (inactive) | < 0.0197 µM (active) | 0.0302 µM | 0.0422 µM (active) | 0.0715 µM (active) | 0.735 µM (active)
14 | CC(=O)c1csc2c1C(=O)c1ccccc1C2=O | 2.51 µM (inactive) | 0.9 µM (active) | 2.02 µM (inactive) | 0.18 µM (active) | 46.7 µM (inactive) | 2.07 µM (inactive) | 2.88 µM (inactive) | 2.36 µM (inactive) | 2.4 µM (inactive) | 10.2 µM (inactive) | 2.43 µM (inactive) | 6.76 µM (inactive) | 1.78 µM (inactive) | 21.7 µM (inactive) | 3.06 µM (inactive) | 1.74 µM (inactive) | 4.55 µM | 1.58 µM (inactive) | 2.25 µM (inactive) | 2.35 µM (inactive)
